Literature values in PMC10817097, “Caffeic Acid Phosphanium Derivatives: Potential Selective Antitumor, Antimicrobial and Antiprotozoal Agents” (International Journal of Molecular Sciences, 2024).

Tests used:
Set-up in all cases: method as in PMID 36771693
[1] = system: MDA-MB-231 (human mammary gland adenocarcinoma); settings: MDA-MB-231, standard; cited from earlier work
[2] = system: MCF-10A cell line (human mammary gland epithelial cells); settings: MCF-10A control cells, standard; cited from earlier work
[3] = system: MCF-7 (human breast adenocarcinoma); settings: MCF-7, standard; cited from earlier work
[4] = system: Jurkat (human leukemic T cell lymphoma); settings: standard; cited from earlier work
[5] = system: HCT116 (human colorectal adenocarcinoma); settings: HCT116, standard; cited from earlier work
[6] = system: PANC-1 (human pancreatic adenocarcinoma); settings: PANC-1, standard; cited from earlier work
[7] = system: HeLa (human cervical adenocarcinoma); settings: standard; cited from earlier work
[8] = system: NIH 3T3 (murine fibroblasts); settings: NIH 3T3 control cells, standard; cited from earlier work
[9] = system: A2058 (human metastatic melanoma); settings: A2058, standard; cited from earlier work

Question: With `N.N.[Cl][Pt][Cl]` [CisPt, cisplatin] as the compound, how does the IC50 [1] read?
Answer: 7.1 µM

Question: And the IC50 [2]?
Answer: 25.9 µM

Question: What about the IC50 [3] of the same compound?
Answer: 29.7 µM

Question: And the IC50 [4]?
Answer: 6.3 µM

Question: What about the IC50 [5] of the same compound?
Answer: 7.4 µM

Question: And the IC50 [6]?
Answer: 16.5 µM

Question: What about the IC50 [7] of the same compound?
Answer: 35.4 µM

Question: What about the IC50 [8] of the same compound?
Answer: 40.6 µM

Question: What about the IC50 [9] of the same compound?
Answer: 21.5 µM
